Laboratory results from patent US9873690B2, “3-indol substituted derivatives, pharmaceutical compositions and methods for use” (Pfizer Inc., priority 2015, dated 2018).

Each compound was assayed against T1, hTDO2 (Homo sapiens, UniProt P48775) (assay: Cellular assay for TDO2 activity determination in A172 cells). Settings: human glioblastoma A172 cells naturally expressing hTDO2; overnight incubation; kynurenine by absorbance at 480 nm.
T1 construct: endogenous in cells; host or cells: A172 human brain glioblastoma cells (ATCC CRL-1620)
T1 sequence (P48775 whole entry): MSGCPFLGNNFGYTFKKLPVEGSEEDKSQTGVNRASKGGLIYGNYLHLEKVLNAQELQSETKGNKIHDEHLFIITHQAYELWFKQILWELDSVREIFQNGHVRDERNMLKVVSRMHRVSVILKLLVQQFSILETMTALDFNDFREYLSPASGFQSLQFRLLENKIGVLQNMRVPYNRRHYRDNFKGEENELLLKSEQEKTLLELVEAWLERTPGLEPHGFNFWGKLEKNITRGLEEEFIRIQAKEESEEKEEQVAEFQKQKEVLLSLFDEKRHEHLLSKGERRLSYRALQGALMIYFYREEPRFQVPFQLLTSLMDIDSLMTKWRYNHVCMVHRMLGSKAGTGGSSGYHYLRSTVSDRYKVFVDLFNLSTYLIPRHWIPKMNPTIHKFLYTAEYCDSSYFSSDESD
Type: cell-based
In short: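 A172 glioblastoma cells endogenously expressing hTDO2, 1.25×10^4 cells/well, incubated overnight at 37 °C, 5% CO2 in IMDM with 2% FBS and ten compound concentrations. Supernatant kynurenine measured after TCA treatment and Ehrlich's reagent (4-dimethylaminobenzaldehyde) by absorbance at 480 nm against a kynurenine standard curve, then curve-fitted.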
With `O=S1(=O)c2ccc(-c3c[nH]c4cc(F)ccc34)cc2CN1C[C@H](O)CO` [Example 34, (S)-2-(2,3-dihydroxypropyl)-5-(6-fluoro-1H-indol-3-yl)-2,3-dihydrobenzo[d]isothiazole 1,1-dioxide] the IC50 was 103 nM.
`O=S1(=O)c2ccc(-c3c[nH]c4cc(F)ccc34)cc2CN1C[C@@H](O)CO` [Example 35, (R)-2-(2,3-dihydroxypropyl)-5-(6-fluoro-1H-indol-3-yl)-2,3-dihydrobenzo[d]isothiazole 1,1-dioxide] gave an IC50 of 119 nM.
For `O=S1(=O)c2ccc(-c3c[nH]c4cc(F)ccc34)cc2CN1C1CCNCC1` [Example 36, 5-(6-fluoro-1H-indol-3-yl)-2-(piperidin-4-yl)-2,3-dihydrobenzo[d]isothiazole 1,1-dioxide], the IC50 was 192 nM.
With `CN1CCC(N2Cc3cc(-c4c[nH]c5cc(F)ccc45)ccc3S2(=O)=O)CC1` [Example 37, 5-(6-fluoro-1H-indol-3-yl)-2-(1-methylpiperidin-4-yl)-2,3-dihydrobenzo[d]isothiazole 1,1-dioxide] the IC50 was 196 nM.
`O=S1(=O)c2ccc(-c3c[nH]c4cc(F)ccc34)cc2CN1[C@@H]1CCOC1` [Example 38, (R)-5-(6-fluoro-1H-indol-3-yl)-2-(tetrahydrofuran-3-yl)-2,3-dihydrobenzo[d]isothiazole 1,1-dioxide] showed an IC50 of 380 nM.
Work on `O=S1(=O)c2ccc(-c3c[nH]c4cc(F)ccc34)cc2CN1[C@H]1CCOC1` [Example 39, (S)-5-(6-fluoro-1H-indol-3-yl)-2-(tetrahydrofuran-3-yl)-2,3-dihydrobenzo[d]isothiazole 1,1-dioxide] yielded an IC50 of 342 nM.
Compound `O=S1(=O)c2ccc(-c3c[nH]c4cc(F)ccc34)cc2CN1C1CNC1` [Example 40, 2-(azetidin-3-yl)-5-(6-fluoro-1H-indol-3-yl)-2,3-dihydrobenzo[d]isothiazole 1,1-dioxide] has an IC50 of 859 nM.
`CN1CC(N2Cc3cc(-c4c[nH]c5cc(F)ccc45)ccc3S2(=O)=O)C1` [Example 41, 5-(6-fluoro-1H-indol-3-yl)-2-(1-methylazetidin-3-yl)-2,3-dihydrobenzo[d]isothiazole 1,1-dioxide] showed an IC50 of 433 nM.
`CNC(=O)CCN1Cc2cc(-c3c[nH]c4cc(F)ccc34)ccc2S1(=O)=O` [Example 43, 3-(5-(6-fluoro-1H-indol-3-yl)-1,1-dioxidobenzo[d]isothiazol-2(3H)-yl)-N-methylpropanamide] showed an IC50 of 136 nM.
`NC(=O)CCN1Cc2cc(-c3c[nH]c4cc(F)ccc34)ccc2S1(=O)=O` [Example 44, 3-(5-(6-fluoro-1H-indol-3-yl)-1,1-dioxidobenzo[d]isothiazol-2(3H)-yl)propanamide] gave an IC50 of 255 nM.
Work on `CC1=NS(=O)(=O)c2ccc(-c3c[nH]c4cc(F)ccc34)cc21` [Example 135, 5-(6-fluoro-1H-indol-3-yl)-3-methylbenzo[d]isothiazole 1,1-dioxide] yielded an IC50 of 183 nM.
For `O=S1(=O)NC2(CC2)c2cc(-c3c[nH]c4cc(F)ccc34)ccc21` [Example 136, 5-(6-fluoro-1H-indol-3-yl)-2H-spiro[benzo[d]-isothiazole-3,1′-cyclopropane] 1,1-dioxide], the IC50 was 233 nM.
With `CC1c2cc(-c3c[nH]c4cc(F)ccc34)ccc2S(=O)(=O)N1Cc1ccccn1` (stereo not shown) [Example 149, 5-(6-fluoro-1H-indol-3-yl)-3-methyl-2-(pyridin-2-ylmethyl)-2,3-dihydrobenzo[d]isothiazole 1,1-dioxide] the IC50 was 397 nM.
